According to patent US9802949B2, “Fused ring compounds as hepatitis C virus inhibitors, pharmaceutical compositions and uses thereof” (SUNSHINE LAKE PHARMA CO., LTD., priority 2012, dated 2017):
pEC50: −log10 of the molar value.

Key:
[1] = system: HCV GT1a replicon; test: HCV replicon assay (Huh-7 cells stably transfected with HCV GT1a replicon; luciferase or NEO gene qPCR readout); format: cell-based; conditions: Hepatitis C virus, HCV 1a genotype replicon, 72 hours
Method: (§1) HCV Replicon System was utilized as a screening model in the present disclosure to evaluate the antivirus effects of the compounds disclosed herein against HCV. HCV Replicon assay was first described in Science, 1999, 285 (5424), 110-3. […] To determine the potential anti-HCV effects of the test compounds, luciferase assay and antibiotic Neomycin resistance gene were tested according to the method described in Science. 1999 Jul. 2; 285 (5424), 110-3 and J. Virol. 2003 March; 77 (5), 3007-19.
(§2) In a word, the compounds disclosed herein were tested by using human hepatic carcinoma cell line Huh-7 which is transfected stably with HCV GT1a, GT1b or GT2a replicon respectively, and resistant cells of Y93H, L31F, P32L or I302V and wild-type cells HCV 1b. HCV Replicon System disclosed herein contains G418 resistance gene NEO and Luciferase Reporter Gene, and the level of HCV replication in host cells is detected and characterized by the expression level of the NEO gene or Luciferase Reporter Gene, so the effects of the compounds herein inhibit HCV replication can be evaluated in this system. In this article, a real-time quantitative polymerase chain reaction (qPCR) method was used to detect NEO gene expression level, and chemiluminescence method was used to test Luciferase Reporter Gene expression level.
(§3) 1. Test Method for Measuring EC50 of the Compounds Based on Luciferase Assay.
(§4) The Huh-7 cells transfected with HCV replicons system were seeded into 96-well plates (8,000 cells in 125 μL/well) respectively; each test compound was diluted to desired concentration using 5-fold serial dilutions protocol, 10 doses in duplicate, and added to wells with POD™ 810 Plate Assembler. The plates were incubated in a CO2 incubator for 72 hours; after that, 40 μL of Luciferase assay substrate (Promega Bright-Glo) was added to each well, and detected by a chemiluminescence detection system (Topcount Microplate Scintillation and Luminescence Counter) 5 minutes later; the EC50 (half-maximal effective concentration, concentration for 50% of maximal effect) values of test compounds were analyzed by GraphPad Prism software. In this paper, experiments were repeated twice and set the wells without compounds as negative control.
(§5) 2. Test Method for Measuring EC50 of the Compounds by Detecting Antibiotic G418 Resistance Gene NEO Gene.
(§6) The Huh-7 cells transfected with HCV replicons system were seeded into 96-well plates (8,000 cells in 125 μL/well) respectively; each test compound was diluted to desired concentration using 5-fold serial dilutions protocol, 10 doses in duplicate, and added to each well with POD™ 810 Plate Assembler; the cells were incubated in a CO2 incubator for 72 hours; and detected the expression level of the NEO gene expression with real-time quantitative PCR later; the EC50 (half-maximal effective concentration, concentration for 50% of maximal effect) values of test compounds were analyzed by GraphPad Prism software, respectively. In this paper, experiments were repeated twice and set the wells without compounds as negative control.

[2] = system: HCV GT1b replicon; test: HCV replicon assay (Huh-7 cells stably transfected with HCV GT1b replicon; luciferase or NEO gene qPCR readout); format: cell-based; conditions: Hepatitis C virus, HCV 1b genotype replicon, 72 hours
Method: as §1, §2, §3, §4, §5, §6

SMILES | pEC50 [1] | pEC50 [2]
COC(=O)N[C@H](C(=O)N1CC(F)(F)C[C@H]1c1ncc(-c2ccc(-c3ccc(-c4ccc5[nH]c([C@@H]6CC(F)(F)CN6C(=O)[C@@H](NC(=O)OC)C(C)C)nc5c4)c4c3C3CCC3C4)cc2)[nH]1)C(C)C (stereo partly shown) [Example 12] | 10.10 | 10.57
COC(=O)N[C@H](C(=O)N1CCC[C@H]1c1ncc(-c2ccc(-c3ccc(-c4ccc5nc([C@@H]6CC7CC7N6C(=O)[C@@H](NC(=O)OC)C(C)C)[nH]c5c4)c4c3C3CCC3C4)cc2)[nH]1)C(C)C (stereo partly shown) [Example 11] | 10.29 | 10.48
COC(=O)N[C@H](C(=O)N1CC(C)(C)C[C@H]1c1ncc(-c2ccc(-c3ccc(-c4ccc5nc([C@@H]6CC(C)(C)CN6C(=O)[C@@H](NC(=O)OC)C(C)C)[nH]c5c4)c4c3C3CCC3C4)cc2)[nH]1)C(C)C (stereo partly shown) [Example 15] | 9.42 | 9.98
COC(=O)N[C@H](C(=O)N1C2CC2C[C@H]1c1ncc(-c2ccc(-c3ccc(-c4ccc5nc([C@@H]6CC7CC7N6C(=O)[C@@H](NC(=O)OC)C(C)C)[nH]c5c4)c4c3C3CCC3C4)cc2)[nH]1)C(C)C (stereo partly shown) [Example 18] | 10.08 | 10.52
COC(=O)N[C@H](C(=O)N1CCC[C@H]1c1ncc(-c2ccc(-c3ccc(-c4cnc([C@@H]5CCCN5C(=O)[C@@H](NC(=O)OC)C(C)C)[nH]4)c4c3C3CCC3C4)cc2)[nH]1)C(C)C (stereo partly shown) [Example 1] | 9.22 | 11.30
COC(=O)N[C@H](C(=O)N1C[C@@H](C)C[C@H]1c1ncc(-c2ccc(-c3ccc(-c4ccc5nc([C@@H]6C[C@H](C)CN6C(=O)[C@@H](NC(=O)OC)C(C)C)[nH]c5c4)c4c3C3CCC3C4)cc2)[nH]1)C(C)C (stereo partly shown) [Example 14] | 11.52 | 12.00
COC(=O)N[C@H](C(=O)N1CCC[C@H]1C1=Nc2cc(-c3ccc(C#Cc4cnc([C@@H]5CCCN5C(=O)[C@@H](NC(=O)OC)C5CCCCC5)[nH]4)c4c3CC3C(=O)CC43)ccc2C(C)(C)N1)C1CCCCC1 (stereo partly shown) [Example 29] | 8.12 | 9.51
COC(=O)N[C@H](C(=O)N1CCC[C@H]1c1ncc(-c2ccc(-c3sc(-c4ccc5nc([C@@H]6CCCN6C(=O)[C@@H](NC(=O)OC)C(C)C)[nH]c5c4)c4c3C3CCC3C4)cc2)[nH]1)C(C)C (stereo partly shown) [Example 26] | 9.08 | 10.32
COC(=O)N[C@H](C(=O)N1CC(C)=C[C@H]1c1ncc(-c2ccc(-c3ccc(-c4cnc([C@@H]5C=C(C)CN5C(=O)[C@@H](NC(=O)OC)C(C)C)[nH]4)c4c3C3CCC3C4)cc2)[nH]1)C(C)C (stereo partly shown) [Example 21] | 10.17 | 10.82
COC(=O)N[C@H](C(=O)N1CCC[C@H]1c1nc2ccc(-c3ccc(-c4ccc(-c5cnc([C@@H]6CC7CC7N6C(=O)[C@@H](NC(=O)OC)C(C)C)[nH]5)cc4)c4c3CC3CCC43)cc2[nH]1)C(C)C (stereo partly shown) [Example 3] | 10.06 | 10.74
COC(=O)NC(C(=O)N1CCCC1c1nc2ccc(-c3ccc(-c4ccc(-c5cnc(C6C7CCC(C7)N6C(=O)C(NC(=O)OC)C(C)C)[nH]5)cc4)c4c3C3CCC3C4)cc2[nH]1)C(C)C (stereo not shown) [Example 36] | 9.03 | 11.00
COC(=O)N[C@H](C(=O)N1CCC[C@H]1c1ncc(-c2ccc(-c3ccc(-c4ccc5nc([C@@H]6CCCN6C(=O)[C@@H](NC(=O)OC)C(C)C)[nH]c5c4)c4c3CC3CCC43)c3cnoc23)[nH]1)C(C)C (stereo partly shown) [Example 24] | 9.68 | 9.93
COC(=O)N[C@H](C(=O)N1CCC[C@H]1c1nc2ccc(-c3ccc(-c4ccc(-c5cnc([C@@H]6C7CCC(C7)N6C(=O)[C@@H](NC(=O)OC)C(C)C)[nH]5)cc4)c4c3C3CCC3C4)cc2[nH]1)C(C)C (stereo partly shown) [Example 2] | 10.15 | 10.68
COC(=O)N[C@H](C(=O)N1CCC[C@H]1c1ncc(-c2ccc(-c3ccc(-c4ccc5nc([C@@H]6CCCN6C(=O)[C@@H](NC(=O)OC)C(C)C)[nH]c5c4)c4c3C3CCC3C4)nc2)[nH]1)C(C)C (stereo partly shown) [Example 8] | 10.18 | 10.55
COC(=O)NC(C(=O)N1CCCC1c1nc2ccc(-c3ccc(-c4ccc(-c5cnc(C6CC7CC7N6C(=O)C(NC(=O)OC)C(C)C)[nH]5)cc4)c4c3CC3CCC43)cc2[nH]1)C(C)C (stereo not shown) [Example 37] | 10.20 | 10.80
COC(=O)N[C@H](C(=O)N1[C@@H]2CC[C@@H](C2)[C@H]1c1ncc(-c2ccc(-c3ccc(-c4ccc5nc([C@@H]6[C@H]7CC[C@H](C7)N6C(=O)[C@@H](NC(=O)OC)C(C)C)[nH]c5c4)c4c3C3CCC3C4)cc2)[nH]1)C(C)C (stereo partly shown) [Example 19] | 9.66 | 10.36
COC(=O)N[C@H](C(=O)N1CCC[C@H]1c1ncc(-c2ccc(-c3ccc(-c4cnc([C@@H]5CCCN5C(=O)[C@@H](NC(=O)OC)C(C)C)[nH]4)c4c3C3CCCC3C4C)cc2)[nH]1)C(C)C (stereo partly shown) [Example 33] | 10.09 | 10.52
COC(=O)N[C@H](C(=O)N1CCC[C@H]1c1ncc(-c2ccc(-c3ccc(-c4ccc5nc([C@@H]6CCCN6C(=O)[C@@H](NC(=O)OC)C(C)C)[nH]c5c4)c4c3C3CCC3C4)cc2)[nH]1)C(C)C (stereo partly shown) [Example 4] | 10.22 | 10.70
COC(=O)N[C@H](C(=O)N1CCCC1c1nc2ccc(-c3ccc(-c4ccc5nc([C@@H]6CCCN6C(=O)[C@@H](NC(=O)OC)C(C)C)[nH]c5c4)c4c3C3C(=O)CCC3C4)cc2[nH]1)C(C)C (stereo partly shown) [Example 32] | 10.20 | 10.59
COC(=O)N[C@H](C(=O)N1C[C@@H](F)C[C@H]1c1ncc(-c2ccc(-c3ccc(-c4ccc5nc([C@@H]6C[C@H](F)CN6C(=O)[C@@H](NC(=O)OC)C(C)C)[nH]c5c4)c4c3C3CCC3C4)cc2)[nH]1)C(C)C (stereo partly shown) [Example 9] | 10.46 | 10.85
CC[C@H](C)[C@H](NC(=O)OC)C(=O)N1CCC[C@H]1C1=Nc2ccc(-c3ccc(-c4ccc5nc([C@@H]6CCCN6C(=O)[C@@H](NC(=O)OC)C(C)C)[nH]c5c4)c4c3CC3CCCC43)cc2S(=O)(=O)N1 (stereo partly shown) [Example 31] | 10.08 | 10.46
COC(=O)N[C@H](C(=O)N1CCC[C@H]1c1ncc(-c2ccc(-c3ncc(-c4ccc5nc([C@@H]6CCCN6C(=O)[C@@H](NC(=O)OC)C(C)C)[nH]c5c4)c4c3C3CCC3C4)cc2)[nH]1)C(C)C (stereo partly shown) [Example 25] | 10.19 | 10.49
COC(=O)N[C@H](C(=O)N1CCC[C@H]1c1ncc(-c2ccc(-c3ccc(-c4ccc5nc([C@@H]6CCCN6C(=O)[C@@H](NC(=O)OC)C(C)C)[nH]c5c4)c4c3CC3CCC43)s2)[nH]1)C(C)C (stereo partly shown) [Example 7] | 10.03 | 10.28
COC(=O)N[C@H](C(=O)N1CCC[C@H]1c1cc(=O)c2cc(-c3ccc(-c4ccc(-c5cnc([C@@H]6CCCN6C(=O)[C@@H](NC(=O)OC)c6ccccc6)[nH]5)cc4)c4c3C3(C)CCC3C4)ccc2[nH]1)c1ccccc1 (stereo partly shown) [Example 30] | 9.68 | 10.04
COC(=O)N[C@H](C(=O)N1CCC[C@H]1C(=O)Nc1ccc(-c2ccc(-c3ccc4nc([C@@H]5CCCN5C(=O)[C@@H](NC(=O)OC)C(C)C)[nH]c4c3)c3c2CC2CCC32)cc1)C(C)C (stereo partly shown) [Example 27] | 8.79 | 9.17
COC(=O)N[C@@H](C)C(=O)N1CCCC1C1=Nc2cc(-c3ccc(-c4cnc([C@@H]5CCCN5C(=O)[C@H](C)NC(=O)OC)[nH]4)c4c3CC3CCC43)ccc2C2(COC2)N1 (stereo partly shown) [Example 5] | 8.98 | 9.92
